Measured values reported in article PMC6332024, “Molecular Cloning and Characterization of a Xanthone Prenyltransferase from Hypericum calycinum Cell Cultures” (Molecules, 2015).

Test system: T1, HcPT
T1 construct: pFastBac1 baculovirus, microsomes of Sf9 insect cells
Test: HPLC-DAD prenylation assay with Sf9 microsomes, Lineweaver-Burk
Type: biochemical, Hypericum calycinum
Details: 4 mM MgCl2, 0.5 mM dithiothreitol, 50 mM potassium phosphate pH 7.5, 40 °C, 30 min

O=c1c2cc(O)c(O)cc2oc2cc(O)cc(O)c12 [1,3,6,7-THX, 1,3,6,7-tetrahydroxyxanthone]
Km (400 µM DMAPP constant): 211 ± 16 µM

CC(C)=CCOP(=O)(O)OP(=O)(O)O [DMAPP, dimethylallyl diphosphate]
Km (500 µM 1,3,6,7-tetrahydroxyxanthone constant): 87 ± 5 µM
